This is an account of results in patent EP4803511A1, “SMALL MOLECULE COMPOUND HAVING SULFONIC ACID OR SULFINIC ACID LACTONE STRUCTURE, COMPOSITION AND USE THEREOF” (Hangzhou Phecdamed Co., Ltd., priority 2023, dated 2025).

Molecules are shown by their SMILES.

One assay has as its system β-galactosidase. Description: Zebrafish oxidative aging model (menadione), β-galactosidase activity. As to conditions: I-8 at 22.2 µg/mL, 22 hrs, 4 µM menadione; compared with the modeling group, statistical significance. It is filed as in vivo. Here is the method:
(§1) Experimental animal: Healthy wild-type AB strain zebrafish at 48 hpf (hours post-fertilization)
(§2) Healthy AB strain zebrafish were taken as experimental animal. A zebrafish oxidative aging model was constructed using chemical mutagenesis with 4 µM menadione as the modeling drug. Fucoxanthin was used as a positive control compound. After treating the zebrafish oxidative aging model with different concentrations of I-8 for 22 hrs, changes in the reactive oxygen species (ROS) content, β-galactosidase activity, and the expression of three antioxidant and anti-aging related genes (Cu/Zn-sod, Mn-sod, and ampk) were respectively detected and statistically analyzed.
(§3) During the experiment, the modeling drug, positive compound, and I-8 were dispersed together in the culture water of zebrafish. […] Cell ROX™ Deep Red fluorescent probes and β-galactosidase staining kits were used to specifically label ROS and β-galactosidase in the fish, respectively, and the staining intensity was quantified using Image-Pro Plus software. After extracting RNA from the whole fish, the expression changes of three genes (Cu/Zn-sod, Mn-sod, and ampk) in the fish were detected at the mRNA level using Quantitative Real-time PCR (RT-qPCR). The data were statistically analyzed using GraphPad software.

Another assay deals with Cu/Zn-sod. Description: Zebrafish oxidative aging model (menadione), Cu/Zn-sod gene expression by RT-qPCR. It is filed as in vivo. To be noted: I-8 at 2.5, 7.5, and 22.2 µg/mL, 22 hrs, 4 µM menadione; compared to the modeling group, statistical significance. How it is done:
as §1, §2, §3
(In general: Quantitative PCR measures a nucleic acid by following its amplification.)

Assay [1] deals with wild-type AB strain zebrafish. Nature of the assay: Zebrafish tail amputation model, wound repair efficacy (caudal fin area). It counts as in vivo. As to conditions: I-8 at 1, 3, and 9 µg/mL, 48 hrs; compared with the modeling group, statistical significance. How it is done: (§4) Experimental animal: Healthy wild-type AB strain zebrafish at 3 dpf (days post fertilization)
Evaluation of wound repair efficacy: Healthy AB strain zebrafish were taken as experimental animal, and randomly divided into blank control group, modeling group, positive control group, and sample group. The zebrafish in the blank control group were treated with culture water; the zebrafish in the modeling group were treated with culture water after cutting the caudal fin; the zebrafish in the positive control group and sample group were treated with 600 µg/mL hyaluronic acid and I-8 with different concentrations (1, 3, 9 µg/mL) respectively after cutting the caudal fin. The larva fish in above groups were placed in a constant temperature incubator at 28.5 °C and kept in continuous darkness for 48 hrs, with the culture medium changed once every 24 hrs. Image-Pro Plus software was used to calculate the area of the caudal fin of each group of zebrafish. The data were statistically analyzed using GraphPad software.

The subject of the next assay is IL-1β. Nature of the assay: IL-1β gene expression in HaCaT after UVB radiation (q-PCR). To be noted: UVB 80 mJ/cm^2, 24 hrs, dose-dependent. It counts as cell-based, human. The text has this:
In the following Test Examples 6-1 and 6-2, using immortalized keratinocytes (HaCaT) and UVB to establish a model, after the compound to be test was applied to HaCaT, the expression levels of TNF-α, IL-8, IL-1β and EP2 were detected; using immortalized keratinocytes (HaCaT) and capsaicin to establish a model, after the compound to be test was applied to HaCaT, the expression level of TRPV1 was detected, so as to evaluate the soothing effect of the test substance from multiple dimensions.
• 1) Cell inoculation: HaCaT cells were inoculated into a 6-well plate at 6×10^5/well, cultured in an incubator (37°C, 5% CO2) for 12 hrs, and a normal control group (0 mJ/cm^2 + vehicle control), a model control group (80 mJ/cm^2 + vehicle control), a low concentration group (80 mJ/cm^2 + low concentration compound), a medium concentration group (80 mJ/cm^2 + medium concentration compound), and a high concentration group (80 mJ/cm^2 + high concentration compounds) were respectively provided. • 2) UVB modeling: The HaCaT cells were washed 3 times with D'Hanks before UVB radiation, 1 mL of D'Hanks was added into the wells, to make the cells to be immersed, and the control group was coated with tinfoil and placed in the dark. […]

The test system of assay [2] is wild-type AB strain zebrafish. Description: Zebrafish model, relieving stinging efficacy (SDS-induced, movement distance and speed). It counts as in vivo. As to conditions: zebrafish 3 dpf, 100 µM SDS model; effective concentrations 22.2, 66.6, and 200 µg/mL. How it is done:
as §4
Evaluation of the relieving stinging efficacy: Healthy AB strain zebrafish were taken and randomly divided into four groups: blank control, modeling group, positive control, and sample group. The zebrafish in the blank control group were treated with embryo culture water; the zebrafish in the modeling group were treated with a modeling drug (100 µM SDS , sodium dodecyl sulfate); the zebrafish in the positive control group were treated with both the modeling agent and a positive control drug (200 µM asiaticoside solution); and the zebrafish in the sample group were treated with both the modeling drug and different concentrations of the test sample (high, medium, and low concentrations). After continuous treatment for a certain period, the zebrafish's behavioral trajectories were recorded using a behavior analyzer, and the changes in total movement distance and speed were statistically analyzed, the results are shown in FIGS. 2-4. […] In the behavioral trajectory diagram in FIG. 2, the black lines represent the zebrafish's behavioral trajectories in the hole; the more numerous and chaotic the lines, the more vigorous the movement of the zebrafish.

For the compound `O=S1(=O)Oc2cc(O)ccc2-c2ccc(O)cc21` [Compound I-8], in the assay with β-galactosidase, the β-galactosidase activity result is “downregulated”. Moreover, in the assay on Cu/Zn-sod, the “expression of Cu/Zn-sod gene” value is recorded as “upregulated”. For the same compound, the caudal fin area result in assay [1] is “increased”. Also, in the assay on IL-1β, the “expression level of IL-1β” value is given as “downregulating”. Also, the relieving stinging efficacy result in assay [2] is on record as “certain relieving stinging efficacy”.
